The target of experiment [1] is T1, PTPN2 (B16F10.4 cells) (Mus musculus, UniProt Q06180).
T1 construct: HiBiT; host or cells: B16F10.4
T1 sequence (Q06180 1-406): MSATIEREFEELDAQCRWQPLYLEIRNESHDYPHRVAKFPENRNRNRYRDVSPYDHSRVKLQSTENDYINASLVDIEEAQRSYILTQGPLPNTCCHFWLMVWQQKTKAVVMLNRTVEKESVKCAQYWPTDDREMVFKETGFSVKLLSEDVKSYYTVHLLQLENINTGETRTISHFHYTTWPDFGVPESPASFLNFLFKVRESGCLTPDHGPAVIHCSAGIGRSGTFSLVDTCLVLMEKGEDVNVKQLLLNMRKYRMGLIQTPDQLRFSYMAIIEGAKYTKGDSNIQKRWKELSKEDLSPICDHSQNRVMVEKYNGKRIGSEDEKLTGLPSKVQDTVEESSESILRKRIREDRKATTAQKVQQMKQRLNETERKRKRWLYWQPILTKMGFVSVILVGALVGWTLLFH
In words: HiBiT Degradation B16F10.4 PTPN2. It counts as cell-based. The note with it: 24.0 hours.

Experiment [2] deals with T2, PTPN2 (HiBIT-PTPN2 in 293T.109 cells) (Homo sapiens, UniProt P17706).
T2 construct: expressed in transfected cells; host or cells: 293T.109 (293T WT from ATCC)
T2 sequence (P17706 1-415): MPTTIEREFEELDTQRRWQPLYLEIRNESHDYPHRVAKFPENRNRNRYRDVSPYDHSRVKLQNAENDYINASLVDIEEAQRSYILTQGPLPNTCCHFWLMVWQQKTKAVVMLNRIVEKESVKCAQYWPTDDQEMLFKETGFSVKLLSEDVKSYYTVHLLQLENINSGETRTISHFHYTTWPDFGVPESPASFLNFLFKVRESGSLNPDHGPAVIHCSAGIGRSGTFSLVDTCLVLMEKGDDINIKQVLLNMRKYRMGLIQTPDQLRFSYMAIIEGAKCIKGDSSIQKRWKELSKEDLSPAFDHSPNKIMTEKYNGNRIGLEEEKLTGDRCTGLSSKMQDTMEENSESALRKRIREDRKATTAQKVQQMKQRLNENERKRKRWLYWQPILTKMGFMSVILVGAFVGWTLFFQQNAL
In words: HiBiT Degradation 293T.109 PTPN2 (Nano-Glo HiBiT Lytic Assay). Format: cell-based. The note with it: 24.0 hours. The essentials:
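Degradation read-out: lytic HiBiT luminescence after 24 h treatment (37 °C, 5% CO2) of 5000 293T cells per well expressing HiBiT-fused PTPN2 from an N-terminal tag. Dosing was 11 points, half-log steps down from 10 μM, in duplicate; vehicle-treated and no-reagent wells served as controls.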
In general terms: HiBiT is a short tag that completes a luciferase, so light tracks the accessible tagged protein.

In general, DC50 refers to the concentration at which degradation of the target reaches its halfway point. Read a low DC50 as a more potent degrader.

As to `Cn1c(=O)n(C2CCC(=O)NC2=O)c2ccc(C3CCN(C(=O)Nc4cccc(CS(=O)(=O)N5CC[C@@H](Nc6cc(-c7sc(C(=O)O)c(OCC(=O)O)c7Cl)ccc6F)CC5(C)C)c4)CC3)cc21` (stereo partly drawn) [Example 133], the DC50 in experiment [1] was in the range of 0.05 to 0.2 µM; in experiment [2], 0.2 to 1 µM.

For `Cn1c(=O)n(C2CCC(=O)NC2=O)c2ccc(C3CCN(C(=O)Nc4cccc(CS(=O)(=O)N5CCC(Nc6cccc(-c7sc(C(=O)O)c(OCC(=O)O)c7Cl)c6)CC5)c4)CC3)cc21` (stereo not drawn) [Example 51, 3-(carboxymethoxy)-4-chloro-5-[3-[[1-[[3-[[4-[1-(2,6-dioxo-3-piperidyl)-3-methyl-2-oxo-benzimidazol-5-yl]piperidine-1-carbonyl]amino]phenyl]methylsulfonyl]-4-piperidyl]amino]phenyl]thiophene-2-carboxylic acid], the DC50 in experiment [1] and in experiment [2] was 0.05 to 0.2 µM in each case.

Regarding `CC1(C)C[C@@H](Nc2cccc(-c3sc(C(=O)O)c(OCC(=O)O)c3Cl)c2)CCN1S(=O)(=O)Cc1cccc(NC(=O)N2CCC(n3c(=O)n(C4CCC(=O)NC4=O)c4ccccc43)CC2)c1` (stereo partly drawn) [Example 124, 3-(carboxymethoxy)-4-chloro-5-[3-[[(4S)-1-[[3-[[4-[3-(2,6-dioxo-3-piperidyl)-2-oxo-benzimidazol-1-yl]piperidine-1-carbonyl]amino]phenyl]methylsulfonyl]-2,2-dimethyl-4-piperidyl]amino]phenyl]thiophene-2-carboxylic acid], the 50% degradation concentration (DC50) in experiment [1] was no less than 1 µM; in experiment [2], 0.2 to 1 µM.

For `CC1(C)C[C@@H](Nc2cccc(-c3sc(C(=O)O)c(OCC(=O)O)c3Cl)c2)CCN1S(=O)(=O)Cc1cccc(NC(=O)COc2cccc3c2CN(C2CCC(=O)NC2=O)C3=O)c1` (stereo partly drawn) [Example 29, 3-(carboxymethoxy)-4-chloro-5-[3-[[(4S)-1-[[3-[[2-[2-(2,6-dioxo-3-piperidyl)-1-oxo-isoindolin-4-yl]oxyacetyl]amino]phenyl]methylsulfonyl]-2,2-dimethyl-4-piperidyl]amino]phenyl]thiophene-2-carboxylic acid], the half-maximal degradation concentration (DC50) in experiment [1] and in experiment [2] was 0.2 to 1 µM in each case.

On to `O=C(O)COc1c(C(=O)O)sc(-c2cccc(NC3CCN(S(=O)(=O)Cc4cccc(NC(=O)CCCCCNC(=O)CNc5cccc6c5CN(C5CCC(=O)NC5=O)C6=O)c4)CC3)c2)c1Cl` (stereo not drawn) [Example 21, 3-(carboxymethoxy)-4-chloro-5-(3-((1-((3-(6-(2-((2-(2,6-dioxopiperidin-3-yl)-1-oxoisoindolin-4-yl)amino)acetamido)hexanamido)benzyl)sulfonyl)piperidin-4-yl)amino)phenyl)thiophene-2-carboxylic acid], for which the DC50 in experiment [1] is no less than 1 µM; in experiment [2] it was 0.2 to 1 µM.

As to `CC1(C)C[C@@H](Nc2cccc(-c3sc(C(=O)O)c(OCC(=O)O)c3Cl)c2)CCN1S(=O)(=O)Cc1cccc(NC(=O)N2CCC(C(=O)NCc3cccc4c3CN(C3CCC(=O)NC3=O)C4=O)CC2)c1` (stereo partly drawn) [Example 84, 3-(carboxymethoxy)-4-chloro-5-[3-[[(4S)-1-[[3-[[4-[[2-(2,6-dioxo-3-piperidyl)-1-oxo-isoindolin-4-yl]methylcarbamoyl]piperidine-1-carbonyl]amino]phenyl]methylsulfonyl]-2,2-dimethyl-4-piperidyl]amino]phenyl]thiophene-2-carboxylic acid], the 50% degradation concentration (DC50) was no less than 1 µM in experiment [1] and 0.2 to 1 µM in experiment [2].

Take `O=C(O)COc1c(C(=O)O)sc(-c2cccc(NC3CCN(S(=O)(=O)Cc4cccc(NC(=O)CCOCCNC(=O)CNc5ccc6c(c5)C(=O)N(C5CCC(=O)NC5=O)C6=O)c4)CC3)c2)c1Cl` (stereo not drawn) [Example 24, 3-(carboxymethoxy)-4-chloro-5-[3-[[1-[[3-[3-[2-[[2-[[2-(2,6-dioxo-3-piperidyl)-1,3-dioxo-isoindolin-5-yl]amino]acetyl]amino]ethoxy]propanoylamino]phenyl]methylsulfonyl]-4-piperidyl]amino]phenyl]thiophene-2-carboxylic acid]: the DC50 in experiment [1] was no less than 1 µM; in experiment [2], 0.2 to 1 µM.

With `O=C(O)COc1c(C(=O)O)sc(-c2cccc(N[C@H]3CCN(S(=O)(=O)Cc4cccc(NC(=O)N5CCC(c6ccc7c8c(cccc68)C(=O)N7C6CCC(=O)NC6=O)CC5)c4)C4(CC4)C3)c2)c1Cl` (stereo partly drawn) [Example 229, 3-(carboxymethoxy)-4-chloro-5-(3-(((7S)-4-((3-(4-(1-(2,6-dioxopiperidin-3-yl)-2-oxo-1,2-dihydrobenzo[cd]indol-6-yl)piperidine-1-carboxamido)benzyl)sulfonyl)-4-azaspiro[2.5]octan-7-yl)amino)phenyl)thiophene-2-carboxylic acid], the 50% degradation concentration (DC50) was less than 0.05 µM in experiment [1] and 0.05 to 0.2 µM in experiment [2].

On to `CC1(C)C[C@@H](Nc2cccc(-c3sc(C(=O)O)c(OCC(=O)O)c3Cl)c2)CCN1S(=O)(=O)Cc1cccc(NC(=O)N2CCC(c3ccc4c(c3)n(C3CC3)c(=O)n4C3CCC(=O)NC3=O)CC2)c1` (stereo partly drawn) [Example 154, 3-(carboxymethoxy)-4-chloro-5-[3-[[(4S)-1-[[3-[[4-[3-cyclopropyl-1-(2,6-dioxo-3-piperidyl)-2-oxo-benzimidazol-S-yl]piperidine-1-carbonyl]amino]phenyl]methylsulfonyl]-2,2-dimethyl-4-piperidyl]amino]phenyl]thiophene-2-carboxylic acid], for which the 50% degradation concentration (DC50) in experiment [1] and in experiment [2] was 0.05 to 0.2 µM in each case.

`CC1(C)C[C@@H](Nc2cccc(-c3sc(C(=O)O)c(OCC(=O)O)c3Cl)c2)CCN1S(=O)(=O)Cc1cccc(NC(=O)C2C[C@@H]3CN(C(=O)CNc4cccc5c4CN(C4CCC(=O)NC4=O)C5=O)C[C@@H]3C2)c1` (stereo partly drawn) [Example 97, 5-[3-[[(4S)-1-[[3-[[(3aR,6aS)-2-[2-[[2-(2,6-dioxo-3-piperidyl)-1-oxo-isoindolin-4-yl]amino]acetyl]-3,3a,4,5,6,6a-hexahydro-1H-cyclopenta[c]pyrrole-S-carbonyl]amino]phenyl]methylsulfonyl]-2,2-dimethyl-4-piperidyl]amino]phenyl]-3-(carboxymethoxy)-4-chloro-thiophene-2-carboxylic acid]: the DC50 in experiment [1] was no less than 1 µM; in experiment [2] it was 0.2 to 1 µM.

Turning to `CC1(C)C[C@@H](Nc2cccc(-c3sc(C(=O)O)c(OCC(=O)O)c3Cl)c2)CCN1S(=O)(=O)Cc1cccc(NC(=O)C2C[C@@H]3CN(C(=O)COc4cccc5c4CN(C4CCC(=O)NC4=O)C5=O)C[C@@H]3C2)c1` (stereo partly drawn) [Example 100], the DC50 in experiment [1] and in experiment [2] was 0.2 to 1 µM each time.

With `O=C(O)COc1c(C(=O)O)sc(-c2cccc(NC3CCN(S(=O)(=O)Cc4cccc(NC(=O)N5CCC(Oc6cccc7c6CN(C6CCC(=O)NC6=O)C7=O)CC5)c4)CC3)c2)c1Cl` (stereo not drawn) [Example 65], the DC50 in experiment [1] and in experiment [2] was 0.2 to 1 µM throughout.

Regarding `CC1(C)C[C@@H](Nc2cccc(-c3sc(C(=O)O)c(OCC(=O)O)c3Cl)c2)CCN1S(=O)(=O)Cc1cccc(NC(=O)N2CCC(c3ccc4c(c3)n(C3CCOCC3)c(=O)n4C3CCC(=O)NC3=O)CC2)c1` (stereo partly drawn) [Example 159, 3-(carboxymethoxy)-4-chloro-5-(3-(((4S)-1-((3-(4-(1-(2,6-dioxopiperidin-3-yl)-2-oxo-3-(tetrahydro-2H-pyran-4-yl)-2,3-dihydro-1H-benzo[d]imidazol-5-yl)piperidine-1-carboxamido)benzyl)sulfonyl)-2,2-dimethylpiperidin-4-yl)amino)phenyl)thiophene-2-carboxylic acid], the DC50 in experiment [1] and in experiment [2] was 0.2 to 1 µM throughout.

As to `CC1(C)C[C@@H](Nc2cccc(-c3sc(C(=O)O)c(OCC(=O)O)c3Cl)c2)CCN1S(=O)(=O)Cc1cccc(NC(=O)NCCCc2ccc3c4c(cccc24)N(C2CCC(=O)NC2=O)C3=O)c1` (stereo partly drawn) [Example 177, 3-(carboxymethoxy)-4-chloro-5-[3-[[(4S)-1-[3-[3-[[1-(2,6-dioxo-3-piperidyl)-2-oxo-benzo[cd]indol-5-yl]propylcarbamoylamino]phenyl]methylsulfonyl]-2,2-dimethyl-4-piperidyl]amino]phenyl]thiophene-2-carboxylic acid], the DC50 in experiment [1] and in experiment [2] was 0.05 to 0.2 µM in each case.

For `Cn1c(=O)n(C2CCC(=O)NC2=O)c2ccc(C3CCN(C(=O)Nc4cccc(CS(=O)(=O)N5CC[C@H](Nc6cccc(-c7sc(C(=O)O)c(OCC(=O)O)c7Cl)c6)CC5(C)C)c4)CC3F)cc21` (stereo partly drawn) [Example 170, 3-(carboxymethoxy)-4-chloro-5-[3-[[(4S)-1-[[3-[[4-[1-(2,6-dioxo-3-piperidyl)-3-methyl-2-oxo-benzimidazol-5-yl]-3-fluoro-piperidine-1-carbonyl]amino]phenyl]methylsulfonyl]-2,2-dimethyl-4-piperidyl]amino]phenyl]thiophene-2-carboxylic acid], the half-maximal degradation concentration (DC50) in experiment [1] and in experiment [2] was less than 0.05 µM each time.

The record behind these values is patent US20250302815A1, “PROTEIN TYROSINE PHOSPHATASE TARGETING LIGANDS” (CALICO LIFE SCIENCES LLC, priority 2021, published 2025).
